The results in this text go back to ChEMBL document CHEMBL5131511, “Design of artificial α-helical peptides targeting both gp41 deep pocket and subpocket as potent HIV-1 fusion inhibitors” (Eur J Med Chem, 2022).

pEC50: −log10 of the molar value. Where a SMILES comes first, the peptide text is derived from it. [ ]: non-standard residue; d: D form. The star is where a group is joined. O(cholesteryl) = CC(C)CCC[C@@H](C)[C@H]1CC[C@H]2[C@@H]3CC=C4C[C@@H](O*)CC[C@]4(C)[C@H]3CC[C@]12C; PEG12 = NCCOCCOCCOCCOCCOCCOCCOCCOCCOCCOCCOCCOCCC(=O)O A value given as a limit tells only on which side of the number the result lay.

One assay deals with Human immunodeficiency virus 1. The experiment in a line: Antiviral activity against HIV-1 IIIB assessed as inhibition of viral replication measured after 4 days by ELISA. It is filed as functional, organism-based. Particulars: Human immunodeficiency virus 1, IIIB, 96 h. In general terms: An ELISA detects its analyte on a solid surface through an enzyme-linked reagent.
Consider `CC[C@H](C)[C@H](NC(=O)[C@H](CO)NC(=O)[C@H](CCC(=O)O)NC(=O)[C@H](CCC(=O)O)NC(=O)[C@H](CCC(N)=O)NC(C)=O)C(=O)N[C@@H](CCCCN)C(=O)N[C@@H](CCCCN)C(=O)N[C@@H](Cc1c[nH]c2ccccc12)C(=O)N[C@@H](CCC(=O)O)C(=O)N[C@@H](CCC(=O)O)C(=O)N[C@@H](Cc1c[nH]c2ccccc12)C(=O)N[C@@H](CO)C(=O)N[C@@H](CCCCN)C(=O)N[C@@H](CCCCN)C(=O)N[C@H](C(=O)N[C@@H](CCC(=O)O)C(=O)N[C@@H](CCC(=O)O)C(=O)N[C@@H](CC(C)C)C(=O)N[C@H](C(=O)N[C@@H](CCCCN)C(=O)N[C@@H](CCCCN)C(=O)N[C@@H](CO)C(=O)N[C@@H](CCC(=O)O)C(=O)N[C@@H](CCC(=O)O)C(=O)N[C@@H](CC(C)C)C(=O)N[C@H](C(=O)N[C@@H](CCCCN)C(=O)N[C@@H](CCCCN)C(=O)N[C@H](C(=O)N[C@@H](CCC(=O)O)C(=O)N[C@@H](CCC(=O)O)C(=O)N[C@@H](CCC(N)=O)C(=O)N[C@H](C(=O)N[C@@H](CCCCN)C(=O)N[C@@H](CCCCN)C(=O)N[C@@H](CS)C(=O)O[C@H]1CC[C@@]2(C)C(=CC[C@H]3[C@@H]4CC[C@H]([C@H](C)CCCC(C)C)[C@@]4(C)CC[C@@H]32)C1)[C@@H](C)CC)[C@@H](C)CC)[C@@H](C)CC)[C@@H](C)CC)[C@@H](C)CC` (Ac-QEESIKKWEEWSKKIEELIKKSEELIKKIEEQIKKC-{O(cholesteryl)}), for which the pEC50 (commonly −log10 of the EC50, conventionally taken in molar units) is under 6.30.

For the compound `CC[C@H](C)[C@H](NC(=O)[C@H](CCC(N)=O)NC(=O)[C@H](CCC(=O)O)NC(=O)[C@H](CCC(=O)O)NC(=O)[C@@H](NC(=O)[C@H](CCCCN)NC(=O)[C@H](CCCCN)NC(=O)[C@@H](NC(=O)[C@H](CC(C)C)NC(=O)[C@H](CCC(=O)O)NC(=O)[C@H](CCC(=O)O)NC(=O)[C@H](CO)NC(=O)[C@H](CCCCN)NC(=O)[C@H](CCCCN)NC(=O)[C@@H](NC(=O)[C@H](CC(C)C)NC(=O)[C@H](CCC(=O)O)NC(=O)[C@H](CCC(=O)O)NC(=O)[C@@H](NC(=O)[C@H](CCCCN)NC(=O)[C@H](CCCCN)NC(=O)[C@H](CO)NC(=O)[C@H](Cc1c[nH]c2ccccc12)NC(=O)[C@H](CCC(=O)O)NC(=O)[C@H](CCC(=O)O)NC(=O)[C@H](Cc1c[nH]c2ccccc12)NC(=O)[C@H](CCCCN)NC(=O)[C@H](CCCCN)NC(=O)[C@@H](NC(=O)[C@H](CO)NC(=O)[C@H](CCC(=O)O)NC(=O)[C@H](CCC(=O)O)NC(=O)[C@H](CCC(N)=O)NC(C)=O)[C@@H](C)CC)[C@@H](C)CC)[C@@H](C)CC)[C@@H](C)CC)[C@@H](C)CC)C(=O)N[C@@H](CCCCN)C(=O)N[C@@H](CCCCN)C(=O)NCCOCCOCCOCCOCCOCCOCCOCCOCCOCCOCCOCCOCCC(=O)N[C@@H](CS)C(=O)O[C@H]1CC[C@@]2(C)C(=CC[C@H]3[C@@H]4CC[C@H]([C@H](C)CCCC(C)C)[C@@]4(C)CC[C@@H]32)C1` (Ac-QEESIKKWEEWSKKIEELIKKSEELIKKIEEQIKK[PEG12]C-{O(cholesteryl)}), the negative logarithm of the EC50 (pEC50) was 8.28.

Another assay concerns Human immunodeficiency virus 1. The experiment in a line: Antiviral activity against HIV-1 IIIB (B, X4) assessed as inhibition of viral replication measured after 4 days by ELISA. It is filed as functional, organism-based. Conditions: Human immunodeficiency virus 1, IIIB (B, X4), 96 h.
For “Ac-QEENNKKWEEWDKKIEELIKKSEELIKKIEEQIKK-NH2”, the negative-log EC50 (pEC50) was 7.16.

For “Ac-QEESIKKWEEWDKKIEELIKKSEELIKKIEEQIKK-NH2”, the negative-log EC50 (pEC50) is 7.39.

Consider “Ac-QIWNNMTWEEWDKKIEELIKKSEELIKKIEEQIKK-NH2”, for which the negative logarithm of the EC50 (pEC50) is 7.44.

For Ac-WEEWDKKIEELIKKSEELIKKIEEQIKK-NH2, the pEC50 was under 5.00.

Consider “Ac-QEENIKKWEEWDKKIEELIKKSEELIKKIEEQIKK-NH2”, for which the pEC50 is 7.18.
